Reference: EPA's CvTdb concentration-time database

Tests used:
Rat [1] = assay: concentration in plasma after dosing
Rat [2] = assay: concentration in plasma after dosing; settings: 0.25 h; dosed: Wyeth-14643; 5.0 mg/kg; oral; Male; Sprague-Dawley
Rat [3] = assay: concentration in plasma after dosing; settings: 2 h; dosed: Wyeth-14643; 2.0 mg/kg; oral; Male; Sprague-Dawley
Rat [4] = assay: concentration in plasma after dosing; settings: 1 h; dosed: Wyeth-14643; 1.0 mg/kg; oral; Male; Sprague-Dawley
Rat [5] = assay: concentration in heart after dosing; settings: dosed: Bis 2-Chloroethoxy Methane, 20 mg/kg, iv
Rat [6] = assay: concentration in liver after dosing; settings: 10 min; dosed: Bis 2-Chloroethoxy Methane; 20 mg/kg; iv; Male; F344
Rat [7] = assay: concentration in liver after dosing
Rat [8] = assay: concentration in heart after dosing; settings: 6 h; dosed: Bis 2-Chloroethoxy Methane; 20 mg/kg; iv; Female; F344
Rat [9] = assay: concentration in thymus after dosing; settings: dosed: Bis 2-Chloroethoxy Methane, 20 mg/kg, iv
Rat [10] = assay: concentration in plasma after dosing; settings: 4 h; dosed: Bis 2-Chloroethoxy Methane; 20 mg/kg; iv; Female; F344
Rat [11] = assay: concentration in brain after dosing; settings: dosed: Fluorotelomer alcohol 8+2, oral
Rat [12] = assay: concentration in kidney after dosing; settings: dosed: Fluorotelomer alcohol 8+2, oral

Cc1cccc(Nc2cc(Cl)nc(SCC(=O)O)n2)c1C
concentration in plasma [ng/mL], Rat [1], Male, Sprague-Dawley
Settings	dosed: Wyeth-14643, 1.0 mg/kg	dosed: Wyeth-14643, 2.0 mg/kg	dosed: Wyeth-14643, 5.0 mg/kg
0.25 h, iv	–	8890	–
0.25 h, oral	480	941	2340
0.5 h, iv	–	4960	–
0.5 h, oral	493	1350	3240
1 h, iv	–	2670	–
1 h, oral	548	1010	4080
2 h, iv	–	682	–
2 h, oral	373	466	1930
2.5 min, iv	–	28300	–
3 h, iv	–	253	–
3 h, oral	145	972	–
4 h, iv	–	218	–
4 h, oral	–	273	1050
5 h, oral	357	312	–
5 min, iv	–	20700	–
5 min, oral	–	270	520
6 h, oral	–	118	506
7 h, oral	124	–	–
8 h, oral	–	305	421
24 h, oral	–	–	129

Settings	concentration in plasma [ng/mL]
Rat [2]	2450
Rat [3]	925
Rat [4]	828

ClCCOCOCCCl [Bis 2-Chloroethoxy Methane]
Settings	concentration in heart, Rat [5] [ng/g]	concentration in thymus, Rat [9] [ng/g]
1 h, Female, F344	1530	2600
1 h, Male, F344	1400	3100
2 h, Female, F344	338	712
2 h, Male, F344	466	783
3 h, Female, F344	123	199
3 h, Male, F344	179	305
4 h, Female, F344	53.5	52.4
4 h, Male, F344	57.5	72.9
5 h, Female, F344	38.7	62.4
5 h, Male, F344	47.8	77.9
6 h, Female, F344	31.7	48.8
6 h, Male, F344	31.5	29.6
7 h, Female, F344	–	26.6
7 h, Male, F344	21.1	36
8 h, Female, F344	–	16.4
8 h, Female, Harlan Sprague-Dawley	13.3	18.1
10 min, Female, F344	11300	33300
10 min, Male, F344	12200	66700
20 min, Female, F344	6050	22300
20 min, Male, F344	6780	13900
40 min, Female, F344	4450	12400
40 min, Male, F344	7060	7360

Settings	concentration in heart [ng/g]	concentration in liver [ng/g]	concentration in plasma [ng/mL]
Rat [6]	–	2500	–
Rat [8]	28.6	–	–
Rat [10]	–	–	86.2

dosed: Bis 2-Chloroethoxy Methane, iv
Settings	concentration in liver, Rat [7] [ng/g]	concentration in plasma, Rat [1] [ng/mL]
1 h, 20 mg/kg, Female, F344	526	1380
1 h, 20 mg/kg, Male, F344	1620	1400
1 h, 40 mg/kg, Male, Harlan Sprague Dawley	–	3850
2 h, 20 mg/kg, Female, F344	65.2	202
2 h, 20 mg/kg, Male, F344	640	336
2 h, 40 mg/kg, Male, Harlan Sprague Dawley	–	648
3 h, 20 mg/kg, Female, F344	–	82.8
3 h, 20 mg/kg, Male, F344	121	119
3 h, 40 mg/kg, Male, Harlan Sprague Dawley	–	333
4 h, 20 mg/kg, Female, F344	–	79
4 h, 20 mg/kg, Male, F344	66.5	117
4 h, 40 mg/kg, Male, Harlan Sprague Dawley	–	139
5 h, 20 mg/kg, Female, F344	–	25.4
5 h, 20 mg/kg, Male, F344	31.1	32.6
5.333 h, 40 mg/kg, Male, Harlan Sprague Dawley	–	74.6
6 h, 20 mg/kg, Female, F344	–	10.2
6 h, 20 mg/kg, Male, F344	26.2	28
6.667 h, 40 mg/kg, Male, Harlan Sprague Dawley	–	45.9
7 h, 20 mg/kg, Male, F344	–	16
8 h, 20 mg/kg, Female, Harlan Sprague-Dawley	–	11.2
8 h, 40 mg/kg, Male, Harlan Sprague Dawley	–	15.7
10 min, 20 mg/kg, Female, F344	1570	9580
10 min, 20 mg/kg, Male, F344	3090	10400
10 min, 40 mg/kg, Male, Harlan Sprague Dawley	–	23400
20 min, 20 mg/kg, Female, F344	2310	5400
20 min, 20 mg/kg, Male, F344	2860	4840
20 min, 40 mg/kg, Male, Harlan Sprague Dawley	–	10200
40 min, 20 mg/kg, Female, F344	662	2110
40 min, 20 mg/kg, Male, F344	4290	2640
40 min, 40 mg/kg, Male, Harlan Sprague Dawley	–	7610

OCCC(F)(F)C(F)(F)C(F)(F)C(F)(F)C(F)(F)C(F)(F)C(F)(F)C(F)(F)F [Fluorotelomer alcohol 8+2]
Settings	concentration in liver [ng/g]	concentration in plasma [ng/mL]
Rat [1], 0.25 h, dosed: Fluorotelomer alcohol 8+2, 12 mg/kg, iv, Male, F344	–	1590
Rat [1], 0.25 h, dosed: Fluorotelomer alcohol 8+2, 12 mg/kg, oral, Male, Harlan Sprague Dawley	–	82.2
Rat [1], 0.25 h, dosed: Fluorotelomer alcohol 8+2, 24 mg/kg, oral, Male, Harlan Sprague Dawley	–	110
Rat [1], 0.25 h, dosed: Fluorotelomer alcohol 8+2, 40 mg/kg, iv, Male, F344	–	13000
Rat [1], 0.5 h, dosed: Fluorotelomer alcohol 8+2, 12 mg/kg, iv, Male, F344	–	1260
Rat [1], 0.5 h, dosed: Fluorotelomer alcohol 8+2, 12 mg/kg, oral, Male, Harlan Sprague Dawley	–	215
Rat [1], 0.5 h, dosed: Fluorotelomer alcohol 8+2, 40 mg/kg, iv, Female, Harlan Sprague-Dawley	–	8470
Rat [1], 0.5 h, dosed: Fluorotelomer alcohol 8+2, 40 mg/kg, iv, Male, F344	–	5070
Rat [1], 0.75 h, dosed: Fluorotelomer alcohol 8+2, 12 mg/kg, iv, Male, F344	–	422
Rat [1], 0.75 h, dosed: Fluorotelomer alcohol 8+2, 12 mg/kg, oral, Male, Harlan Sprague Dawley	–	348
Rat [1], 0.75 h, dosed: Fluorotelomer alcohol 8+2, 40 mg/kg, iv, Female, Harlan Sprague-Dawley	–	2350
Rat [1], 1 h, dosed: Fluorotelomer alcohol 8+2, 12 mg/kg, iv, Male, F344	–	625
Rat [1], 1 h, dosed: Fluorotelomer alcohol 8+2, 12 mg/kg, oral, Male, Harlan Sprague Dawley	–	264
Rat [1], 1 h, dosed: Fluorotelomer alcohol 8+2, 40 mg/kg, iv, Female, Harlan Sprague-Dawley	–	2720
Rat [1], 3 h, dosed: Fluorotelomer alcohol 8+2, 12 mg/kg, iv, Male, F344	–	118
Rat [1], 3 h, dosed: Fluorotelomer alcohol 8+2, 12 mg/kg, oral, Male, Harlan Sprague Dawley	–	84.4
Rat [1], 3 h, dosed: Fluorotelomer alcohol 8+2, 40 mg/kg, iv, Male, F344	–	378
Rat [1], 5 min, dosed: Fluorotelomer alcohol 8+2, 12 mg/kg, iv, Male, F344	–	3550
Rat [1], 5 min, dosed: Fluorotelomer alcohol 8+2, 12 mg/kg, oral, Male, Harlan Sprague Dawley	–	2.61
Rat [1], 5 min, dosed: Fluorotelomer alcohol 8+2, 24 mg/kg, oral, Male, Harlan Sprague Dawley	–	6.33
Rat [1], 6 h, dosed: Fluorotelomer alcohol 8+2, 12 mg/kg, iv, Male, F344	–	48.7
Rat [1], 6 h, dosed: Fluorotelomer alcohol 8+2, 12 mg/kg, oral, Male, Harlan Sprague Dawley	–	37.1
Rat [1], 6 h, dosed: Fluorotelomer alcohol 8+2, 40 mg/kg, iv, Male, F344	–	254
Rat [1], 9 h, dosed: Fluorotelomer alcohol 8+2, 12 mg/kg, iv, Male, F344	–	23.8
Rat [1], 9 h, dosed: Fluorotelomer alcohol 8+2, 12 mg/kg, oral, Male, Harlan Sprague Dawley	–	11.6
Rat [1], 9 h, dosed: Fluorotelomer alcohol 8+2, 24 mg/kg, oral, Male, Harlan Sprague Dawley	–	40.2
Rat [1], 9 h, dosed: Fluorotelomer alcohol 8+2, 40 mg/kg, iv, Female, Harlan Sprague-Dawley	–	76.6
Rat [1], 9 h, dosed: Fluorotelomer alcohol 8+2, 40 mg/kg, iv, Male, F344	–	47
Rat [1], 12 h, dosed: Fluorotelomer alcohol 8+2, 12 mg/kg, iv, Male, F344	–	5.59
Rat [1], 12 h, dosed: Fluorotelomer alcohol 8+2, 12 mg/kg, oral, Male, Harlan Sprague Dawley	–	4.01
Rat [1], 12 h, dosed: Fluorotelomer alcohol 8+2, 40 mg/kg, iv, Female, Harlan Sprague-Dawley	–	34.6
Rat [1], 24 h, dosed: Fluorotelomer alcohol 8+2, 12 mg/kg, iv, Male, F344	–	4.63
Rat [1], 24 h, dosed: Fluorotelomer alcohol 8+2, 12 mg/kg, oral, Male, Harlan Sprague Dawley	–	1.18
Rat [1], 24 h, dosed: Fluorotelomer alcohol 8+2, 24 mg/kg, oral, Male, Harlan Sprague Dawley	–	2.62
Rat [1], 24 h, dosed: Fluorotelomer alcohol 8+2, 40 mg/kg, iv, Female, Harlan Sprague-Dawley	–	23.2
Rat [7], 0.5 h, dosed: Fluorotelomer alcohol 8+2, 24 mg/kg, oral, Male, Harlan Sprague Dawley	17700	–
Rat [7], 0.5 h, dosed: Fluorotelomer alcohol 8+2, 24 mg/kg, oral, Male, Harlan Sprague Dawley - this seems too small	2190	–
Rat [7], 0.5 h, dosed: Fluorotelomer alcohol 8+2, 80 mg/kg, oral, Female, Harlan Sprague Dawley	11600	–
Rat [7], 1 h, dosed: Fluorotelomer alcohol 8+2, 24 mg/kg, oral, Male, Harlan Sprague Dawley	3900	–
Rat [7], 1 h, dosed: Fluorotelomer alcohol 8+2, 80 mg/kg, oral, Female, Harlan Sprague Dawley	12500	–
Rat [7], 3 h, dosed: Fluorotelomer alcohol 8+2, 24 mg/kg, oral, Male, Harlan Sprague Dawley	2230	–
Rat [7], 3 h, dosed: Fluorotelomer alcohol 8+2, 80 mg/kg, oral, Female, Harlan Sprague Dawley	9320	–
Rat [7], 6 h, dosed: Fluorotelomer alcohol 8+2, 24 mg/kg, oral, Male, Harlan Sprague Dawley	2050	–
Rat [7], 6 h, dosed: Fluorotelomer alcohol 8+2, 80 mg/kg, oral, Female, Harlan Sprague Dawley	3970	–
Rat [7], 12 h, dosed: Fluorotelomer alcohol 8+2, 24 mg/kg, oral, Male, Harlan Sprague Dawley	604	–
Rat [7], 12 h, dosed: Fluorotelomer alcohol 8+2, 80 mg/kg, oral, Female, Harlan Sprague Dawley	1610	–

Settings	concentration in brain, Rat [11] [ng/g]	concentration in kidney, Rat [12] [ng/g]
0.5 h, 24 mg/kg, Male, Harlan Sprague Dawley	4540	3380
0.5 h, 24 mg/kg, Male, Harlan Sprague Dawley - this seems too small	978	1060
0.5 h, 80 mg/kg, Female, Harlan Sprague Dawley	5440	2910
1 h, 24 mg/kg, Male, Harlan Sprague Dawley	2450	1560
1 h, 80 mg/kg, Female, Harlan Sprague Dawley	9090	6420
3 h, 24 mg/kg, Male, Harlan Sprague Dawley	2300	1070
3 h, 80 mg/kg, Female, Harlan Sprague Dawley	8400	3900
6 h, 24 mg/kg, Male, Harlan Sprague Dawley	663	460
6 h, 80 mg/kg, Female, Harlan Sprague Dawley	2060	1450
12 h, 24 mg/kg, Male, Harlan Sprague Dawley	95.5	185
12 h, 80 mg/kg, Female, Harlan Sprague Dawley	679	373
